Our source for the IC50 values is US4851440A, “Leukotriene antagonists, processes for the preparation thereof, the use thereof for the treatment of diseases, and precursors” (Hoechst Aktiengesellschaft, priority 1987, dated 1989).

By IC50 is commonly meant the point on the concentration scale where inhibition reaches its midpoint.

The structures appear in SMILES notation. ≈ marks a conversion by molar mass, not a printed value.

What all share (format): cell-based
One assay deals with LTE4. Briefly: Inhibition of the LTE4-induced contraction of strips of guinea pig lung. The following applies: Cavia porcellus; LTE4 3 ng/ml of bath liquid; lung strips pretreated with indomethacin (10^-6 g/ml); substance added at maximum contraction plateau; 37° C.; read-out: IC50 versus LTE4. On the procedure:
(§1) The leukotriene-antagonistic action of the substances of the general formula I according to the invention is determined by the inhibition of the leukotriene-induced contraction of strips of guinea pig lung. The method which is used is a modification of the tests described by Foreman, Shelly and Weber (Arch. Int. Pharmacodyn. 278, 193-206 (1985)).
(§2) Guinea pigs are sacrificed by an overdose of ether. The thoracic cavity is opened; the lungs are removed and cut into strips 5 cm long, which are stored in physiological saline. For the measurement, the strips of lung are placed in an organ bath filled with Ringer's solution which is equilibrated at 37° C. and through which carbogen (O2 /CO2 95:5 parts by volume) is passed. The strips are left to equilibrate under a load of 0.5-1 g for 30-60 minutes. The strips of lung are pretreated with indomethacin (10^-6 g/ml of bath liquid) before the test starts.
(§3) The contraction is induced by adding LTC4, LTD4 or LTE4 in a concentration of 3 ng/ml of bath liquid. The test substances are administered therapeutically into the bath, after the maximum contraction plateau has been reached, in several concentrations and at time intervals of 10 minutes. 6-12 strips of lung are used for each concentration of the test substances.
(§4) The concentrations of the test substances at which the contraction is reduced by 50% (IC50) are indicated in μg/ml.

The next assay relates to LTC4. Briefly: Inhibition of the LTC4-induced contraction of strips of guinea pig lung. The conditions noted are these: Cavia porcellus; LTC4 3 ng/ml of bath liquid; lung strips pretreated with indomethacin (10^-6 g/ml); substance added at maximum contraction plateau; 37° C.; read-out: IC50 versus LTC4. The method, then: as §1, §2, §3, §4
The next assay has as its system LTD4. Briefly: Inhibition of the LTD4-induced contraction of strips of guinea pig lung. The following applies: Cavia porcellus; LTD4 3 ng/ml of bath liquid; lung strips pretreated with indomethacin (10^-6 g/ml); substance added at maximum contraction plateau; 37° C.; read-out: IC50 versus LTD4. The method, then: as §1, §2, §3, §4

Turning to `COC(=O)CSC[C@H](O)[C@H](Sc1cccc(OC)c1)c1ccccc1` [Compound C, Methyl (5 S,6 R)(-)-5-hydroxy-6-(3-methoxyphenylthio)-6-phenyl-3-thiahexanoate], the 50% inhibitory concentration (IC50) is 0.3 to 0.6 µg/mL (≈ 0.793 to 1.59 µM) in the assay with LTE4, 0.3 to 0.6 µg/mL (≈ 0.793 to 1.59 µM) with LTC4 and 0.1 µg/mL (≈ 0.264 µM) in the assay with LTD4.

As for `COC(=O)CSC[C@@H](O)[C@@H](Sc1cccc(OC)c1)c1ccccc1` (racemic) [Compound B, Methyl (5RS,6SR)-5-hydroxy-6-(3-methoxyphenylthio)-6-phenyl-3-thiahexanoate], the IC50 in the assay with LTE4 was 1 µg/mL (≈ 2.64 µM); in the assay on LTC4, 0.6 to 1 µg/mL (≈ 1.59 to 2.64 µM); with LTD4 it was 0.6 µg/mL (≈ 1.59 µM).

Consider `CCCS[C@@H](c1ccccc1)[C@H](O)COCC(=O)OC` (racemic) [Compound D, Methyl (5RS,6SR)-5-hydroxy-6-phenyl-3-oxa-7-thiadecanoate], for which the values for the IC50 in the assay on LTE4, in the assay on LTC4 and in the assay with LTD4 were more than 10 µg/mL, more than 10 µg/mL and 0.5 µg/mL (≈ 1.68 µM), respectively.

With `COC(=O)COC[C@@H](O)[C@@H](Sc1cccc(OC)c1)c1ccccc1` (racemic) [Compound A, Methyl (5RS,6SR)-5-hydroxy-6-(3-methoxyphenylthio)-6-phenyl-3-oxahexanoate], the figures for the IC50 with LTE4, in the assay on LTC4 and in the assay with LTD4 were 1 µg/mL (≈ 2.76 µM), 0.6 µg/mL (≈ 1.66 µM) and 0.3 µg/mL (≈ 0.828 µM), respectively.

As for `CCCS[C@@H](c1ccccc1)[C@H](O)CSCC(=O)OC` (racemic) [Compound E, Methyl (5RS,6SR)-5-hydroxy-6-phenyl-3,7-dithiadecanoate], the results for the IC50 in the assay with LTE4, with LTC4 and in the assay on LTD4 were 6 to 10 µg/mL (≈ 19.1 to 31.8 µM), 6 µg/mL (≈ 19.1 µM) and 0.6 to 1 µg/mL (≈ 1.91 to 3.18 µM), respectively.
